Test results from PMC9958137, “The cofactor-dependent folding mechanism of Drosophila cryptochrome revealed by single-molecule pulling experiments” (Nature Communications, 2023).

How the values were obtained:
[1] = target: T1, dCRY (Drosophila cryptochrome) (Drosophila melanogaster, UniProt O77059); experiment: single-molecule optical tweezers, ligand-promoted refolding; type: binding; conditions: 0.1 mM ligand, FAD dialysed out; refolding 20 s at 1 pN; pH 8.0; no Mg2+
T1 construct: gene cry; full length, 542 residues; His6, N-terminal Avi tag (biotinylated) and C-terminal ybbR tag (DNA handle) kept; 558 residues with engineered linkers; FAD dialysed out for apo; only genus Drosophila given
T1 sequence (O77059 whole entry): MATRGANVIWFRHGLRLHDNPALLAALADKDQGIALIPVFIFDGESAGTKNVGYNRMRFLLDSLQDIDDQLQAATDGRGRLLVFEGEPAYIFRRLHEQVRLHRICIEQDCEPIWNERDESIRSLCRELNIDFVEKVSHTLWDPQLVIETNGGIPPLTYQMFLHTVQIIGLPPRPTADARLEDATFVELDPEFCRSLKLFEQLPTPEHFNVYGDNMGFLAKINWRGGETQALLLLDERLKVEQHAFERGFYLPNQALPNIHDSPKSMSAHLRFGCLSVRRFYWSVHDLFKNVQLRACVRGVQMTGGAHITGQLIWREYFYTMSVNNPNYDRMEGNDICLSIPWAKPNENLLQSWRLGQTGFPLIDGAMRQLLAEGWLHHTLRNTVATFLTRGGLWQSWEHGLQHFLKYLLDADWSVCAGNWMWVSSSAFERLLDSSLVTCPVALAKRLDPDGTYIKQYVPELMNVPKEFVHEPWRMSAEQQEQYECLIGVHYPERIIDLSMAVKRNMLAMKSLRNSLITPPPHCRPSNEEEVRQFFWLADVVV

[2] = target: T1, dCRY (Drosophila cryptochrome); experiment: single-molecule optical tweezers, FAD titration of fully folded fraction; type: binding; conditions: read-out: Kd,app

Row | Structure (SMILES) | % fully folded events at 0.1 mM [1] | Kd [2]
1 | Nc1ncnc2c1ncn2[C@@H]1O[C@H](COP(=O)(O)OP(=O)(O)O)[C@@H](O)[C@H]1O [ADP] | 9% | –
2 | Nc1ncnc2c1ncn2[C@@H]1O[C@H](COP(=O)(O)O)[C@@H](O)[C@H]1O [AMP] | 24% | –
3 | Cc1cc2nc3c(=O)[nH]c(=O)nc-3n(C[C@H](O)[C@H](O)[C@H](O)COP(=O)(O)OP(=O)(O)OC[C@H]3O[C@@H](n4cnc5c(N)ncnc54)[C@H](O)[C@@H]3O)c2cc1C [FAD] | – | 0.11 ± 0.01 nM
4 | Cc1cc2nc3c(=O)[nH]c(=O)nc-3n(C[C@H](O)[C@H](O)[C@H](O)COP(=O)(O)O)c2cc1C [FMN] | 84% | –
5 | Nc1ncnc2c1ncn2[C@@H]1O[C@H](CO)[C@@H](O)[C@H]1O [adenosine] | 20% | –
6 | Cc1cc2nc3c(=O)[nH]c(=O)nc-3n(C[C@H](O)[C@H](O)[C@H](O)CO)c2cc1C [riboflavin] | 39% | –
